Experimental data as given in patent US9890156B2, “Bicyclic heterocycles as FGFR4 inhibitors” (Incyte Corporation, priority 2015, dated 2018).
Like-named read-outs stand apart in the source and are kept apart here.

Experiments:
[1] = molecular target: FGFR4 (Homo sapiens (Human), UniProt P22455); assay: FGFR Enzymatic Assay (FRET, peptide phosphorylation), FGFR4
[2] = molecular target: FGFR1 (Homo sapiens (Human), UniProt P11362); assay: FGFR Enzymatic Assay (FRET, peptide phosphorylation), FGFR1; conditions: read-out: FGFR1 IC50; pre-incubated for 4 hours; ATP 210 uM
Chain of FGFR1 (P11362 22-822): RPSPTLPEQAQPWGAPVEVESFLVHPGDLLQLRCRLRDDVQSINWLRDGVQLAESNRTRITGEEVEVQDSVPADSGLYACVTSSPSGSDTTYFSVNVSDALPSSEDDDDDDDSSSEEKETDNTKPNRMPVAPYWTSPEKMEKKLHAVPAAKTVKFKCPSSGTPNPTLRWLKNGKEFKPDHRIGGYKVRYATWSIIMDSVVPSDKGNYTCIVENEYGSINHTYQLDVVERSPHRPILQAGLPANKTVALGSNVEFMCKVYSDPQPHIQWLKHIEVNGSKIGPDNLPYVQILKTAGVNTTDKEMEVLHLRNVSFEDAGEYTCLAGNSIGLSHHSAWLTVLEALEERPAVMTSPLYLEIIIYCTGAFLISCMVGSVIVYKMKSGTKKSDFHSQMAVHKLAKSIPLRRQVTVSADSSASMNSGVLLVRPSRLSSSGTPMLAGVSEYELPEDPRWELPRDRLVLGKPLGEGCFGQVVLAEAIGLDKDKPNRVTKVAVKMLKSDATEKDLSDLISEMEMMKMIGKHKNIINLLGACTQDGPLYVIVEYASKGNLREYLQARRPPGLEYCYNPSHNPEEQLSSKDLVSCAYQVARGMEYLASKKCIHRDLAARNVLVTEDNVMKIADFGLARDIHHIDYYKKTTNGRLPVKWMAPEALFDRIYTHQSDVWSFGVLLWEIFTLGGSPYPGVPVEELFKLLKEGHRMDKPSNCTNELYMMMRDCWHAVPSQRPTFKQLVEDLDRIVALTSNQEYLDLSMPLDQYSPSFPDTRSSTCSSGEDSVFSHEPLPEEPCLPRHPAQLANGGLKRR

[3] = molecular target: FGFR2 (Homo sapiens (Human), UniProt P21802); assay: FGFR Enzymatic Assay (FRET, peptide phosphorylation), FGFR2; conditions: read-out: FGFR2 IC50; pre-incubated for 4 hours; ATP 100 uM
Chain of FGFR2 (P21802 22-821): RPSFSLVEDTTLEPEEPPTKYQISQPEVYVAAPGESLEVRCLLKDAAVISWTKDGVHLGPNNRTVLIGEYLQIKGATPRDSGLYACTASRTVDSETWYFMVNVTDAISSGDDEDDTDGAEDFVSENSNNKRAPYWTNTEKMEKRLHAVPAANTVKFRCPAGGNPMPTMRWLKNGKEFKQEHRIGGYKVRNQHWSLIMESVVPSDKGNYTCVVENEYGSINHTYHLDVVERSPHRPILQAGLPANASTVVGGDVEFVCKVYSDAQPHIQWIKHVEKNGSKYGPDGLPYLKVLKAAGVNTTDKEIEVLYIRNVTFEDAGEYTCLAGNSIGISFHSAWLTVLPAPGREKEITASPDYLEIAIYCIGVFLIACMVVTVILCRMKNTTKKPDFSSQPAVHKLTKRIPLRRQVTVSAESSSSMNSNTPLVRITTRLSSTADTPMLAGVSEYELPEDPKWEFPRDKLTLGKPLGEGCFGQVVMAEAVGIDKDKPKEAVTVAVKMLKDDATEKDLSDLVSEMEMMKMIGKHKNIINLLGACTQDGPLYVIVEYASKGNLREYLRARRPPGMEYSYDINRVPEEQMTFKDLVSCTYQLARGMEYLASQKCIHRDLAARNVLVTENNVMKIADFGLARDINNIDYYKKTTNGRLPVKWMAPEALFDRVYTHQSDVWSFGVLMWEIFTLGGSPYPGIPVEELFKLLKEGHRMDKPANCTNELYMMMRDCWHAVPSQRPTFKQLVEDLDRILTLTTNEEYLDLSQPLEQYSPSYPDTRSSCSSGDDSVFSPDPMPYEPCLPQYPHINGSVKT

[4] = molecular target: FGFR3 (Homo sapiens (Human), UniProt P22607); assay: FGFR Enzymatic Assay (FRET, peptide phosphorylation), FGFR3; assay type: biochemical; conditions: pre-incubated for 4 hours; ATP 140 μM
Chain of FGFR3 (P22607 23-806): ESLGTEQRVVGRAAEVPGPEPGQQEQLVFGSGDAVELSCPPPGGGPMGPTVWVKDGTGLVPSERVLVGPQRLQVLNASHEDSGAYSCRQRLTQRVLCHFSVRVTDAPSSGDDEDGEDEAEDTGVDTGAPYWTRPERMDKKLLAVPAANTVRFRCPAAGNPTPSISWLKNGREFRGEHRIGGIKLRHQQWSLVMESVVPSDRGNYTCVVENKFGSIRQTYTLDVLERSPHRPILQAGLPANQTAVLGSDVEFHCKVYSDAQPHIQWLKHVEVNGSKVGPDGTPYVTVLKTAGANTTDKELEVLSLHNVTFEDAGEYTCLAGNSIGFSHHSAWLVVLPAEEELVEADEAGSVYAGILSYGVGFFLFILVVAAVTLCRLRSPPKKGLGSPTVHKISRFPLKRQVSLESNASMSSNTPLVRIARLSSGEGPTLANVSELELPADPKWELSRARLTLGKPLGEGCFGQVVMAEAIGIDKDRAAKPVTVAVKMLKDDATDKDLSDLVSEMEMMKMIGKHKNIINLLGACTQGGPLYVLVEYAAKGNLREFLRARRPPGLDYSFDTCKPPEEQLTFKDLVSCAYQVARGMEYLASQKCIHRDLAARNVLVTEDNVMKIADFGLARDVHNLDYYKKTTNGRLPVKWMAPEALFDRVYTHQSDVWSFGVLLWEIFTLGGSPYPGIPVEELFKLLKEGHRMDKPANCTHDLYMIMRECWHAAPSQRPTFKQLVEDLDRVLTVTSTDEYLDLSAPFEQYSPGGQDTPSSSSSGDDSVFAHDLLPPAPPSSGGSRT

[5] = read-out: FGFR4 IC50, pre-incubated for 4 hours, ATP 600 uM

Chain of FGFR4 (P22455 22-802): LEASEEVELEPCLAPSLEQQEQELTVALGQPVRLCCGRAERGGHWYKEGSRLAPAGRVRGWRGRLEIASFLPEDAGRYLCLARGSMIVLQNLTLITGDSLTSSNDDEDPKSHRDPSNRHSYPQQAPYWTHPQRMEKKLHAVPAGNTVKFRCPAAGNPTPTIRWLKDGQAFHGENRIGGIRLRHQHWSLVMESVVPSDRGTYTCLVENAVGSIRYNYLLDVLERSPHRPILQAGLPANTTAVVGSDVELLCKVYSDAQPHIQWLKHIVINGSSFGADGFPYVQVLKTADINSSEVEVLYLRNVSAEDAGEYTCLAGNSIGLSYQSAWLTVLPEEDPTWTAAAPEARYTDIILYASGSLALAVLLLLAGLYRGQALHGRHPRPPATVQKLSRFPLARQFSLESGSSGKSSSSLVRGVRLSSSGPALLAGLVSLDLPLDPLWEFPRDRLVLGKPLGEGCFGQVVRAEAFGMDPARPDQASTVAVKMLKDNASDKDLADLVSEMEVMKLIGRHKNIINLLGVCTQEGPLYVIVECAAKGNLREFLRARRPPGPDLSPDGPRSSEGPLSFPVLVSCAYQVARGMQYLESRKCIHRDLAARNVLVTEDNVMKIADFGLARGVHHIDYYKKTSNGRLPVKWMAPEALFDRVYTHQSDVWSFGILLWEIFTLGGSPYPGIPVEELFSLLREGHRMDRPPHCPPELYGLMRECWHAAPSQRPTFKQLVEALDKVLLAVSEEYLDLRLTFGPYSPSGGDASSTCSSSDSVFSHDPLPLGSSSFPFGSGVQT

Row | IC50 [1, 5] [nM] | IC50 [2] [nM] | IC50 [3] [nM] | IC50 [4] [nM] | IC50 [1] [nM] | SMILES
1 | < 10 | > 200 | > 200 | > 200 | – | C=CC(=O)NCc1cc2c(cn1)CN(c1c(F)c(OC)cc(OC)c1F)C(=O)N2CC#N [Example 20, N-((1-(cyanomethyl)-3-(2,6-difluoro-3,5-dimethoxyphenyl)-2-oxo-1,2,3,4-tetrahydropyrido[4,3-d]pyrimidin-7-yl)methyl)acrylamide]
2 | < 10 | > 200 | > 200 | > 200 | – | C=CC(=O)NCc1cc2c(cn1)CN(c1c(F)c(OC)cc(OC)c1F)C(=O)N2CC(F)(F)F [Example 21, N-((3-(2,6-difluoro-3,5-dimethoxyphenyl)-2-oxo-1-(2,2,2-trifluoroethyl)-1,2,3,4-tetrahydropyrido[4,3-d]pyrimidin-7-yl)methyl)acrylamide]
3 | – | > 200 | > 200 | > 200 | 10 to 30 | C=CC(=O)NCc1cc2c(cn1)CN(c1c(F)c(OC)cc(OC)c1F)C(=O)N2C [Example 22, N-((3-(2,6-difluoro-3,5-dimethoxyphenyl)-1-methyl-2-oxo-1,2,3,4-tetrahydropyrido[4,3-d]pyrimidin-7-yl)methyl)acrylamide]
5 | – | > 200 | > 200 | > 200 | 10 to 30 | C=CC(=O)NCc1cc2c(cn1)CN(c1c(F)c(OC)cc(OC)c1F)C(=O)N2C1CCC1 [Example 25, N-((1-cyclobutyl-3-(2,6-difluoro-3,5-dimethoxyphenyl)-2-oxo-1,2,3,4-tetrahydropyrido[4,3-d]pyrimidin-7-yl)methyl)acrylamide]
6 | – | > 200 | > 200 | > 200 | 10 to 30 | C=CC(=O)NCc1cc2c(cn1)CN(c1c(F)c(OC)cc(OC)c1F)C(=O)N2c1ccncc1 [Example 26, N-((3-(2,6-difluoro-3,5-dimethoxyphenyl)-2-oxo-1-(pyridin-4-yl)-1,2,3,4-tetrahydropyrido[4,3-d]pyrimidin-7-yl)methyl)acrylamide]
7 | < 10 | > 200 | > 200 | > 200 | – | C=CC(=O)NCc1cc2c(cn1)CN(c1c(F)c(OC)cc(OC)c1F)C(=O)N2CCF [Example 27, N-((3-(2,6-difluoro-3,5-dimethoxyphenyl)-1-(2-fluoroethyl)-2-oxo-1,2,3,4-tetrahydropyrido[4,3-d]pyrimidin-7-yl)methyl)acrylamide]
8 | < 10 | > 200 | > 200 | > 200 | – | C=CC(=O)NCc1cc2c(cn1)CN(c1c(F)c(OC)cc(OC)c1F)C(=O)N2C[C@@H]1CCOC1 [Example 31, (S)—N-((3-(2,6-difluoro-3,5-dimethoxyphenyl)-2-oxo-1-((tetrahydrofuran-3-yl)methyl)-1,2,3,4-tetrahydropyrido[4,3-d]pyrimidin-7-yl)methyl)acrylamide]
10 | < 10 | > 200 | > 200 | > 200 | – | C=CC(=O)NCc1cc2c(cn1)CN(c1c(F)c(OC)cc(OC)c1F)C(=O)N2CC1CCN(C(=O)NC(C)C)CC1 [Example 34, 4-((7-(acrylamidomethyl)-3-(2,6-difluoro-3,5-dimethoxyphenyl)-2-oxo-3,4-dihydropyrido[4,3-d]pyrimidin-1(2H)-yl)methyl)-N-isopropylpiperidine-1-carboxamide]
11 | < 10 | > 200 | > 200 | > 200 | – | C=CC(=O)NCc1cc2c(cn1)CN(c1c(F)c(OC)cc(OC)c1F)C(=O)N2CC1CCN(S(C)(=O)=O)CC1 [Example 35, N-((3-(2,6-difluoro-3,5-dimethoxyphenyl)-1-((1-(methylsulfonyl)piperidin-4-yl)methyl)-2-oxo-1,2,3,4-tetrahydropyrido[4,3-d]pyrimidin-7-yl)methyl)acrylamide]
12 | < 10 | > 200 | > 200 | > 200 | – | C=CC(=O)NCc1cc2c(cn1)CN(c1c(Cl)c(OC)cc(OC)c1Cl)C(=O)N2CC [Example 36, N-((3-(2,6-dichloro-3,5-dimethoxyphenyl)-1-ethyl-2-oxo-1,2,3,4-tetrahydropyrido[4,3-d]pyrimidin-7-yl)methyl)acrylamide]
13 | – | > 200 | > 200 | > 200 | 10 to 30 | C=CC(=O)NCc1ncc2c(c1C)C1(CC1)C(=O)N(c1c(F)c(OC)cc(OC)c1F)C2 [Example 37, N-((2′-(2,6-difluoro-3,5-dimethoxyphenyl)-5′-methyl-3′-oxo-2′,3′-dihydro-1′H-spiro[cyclopropane-1,4′-[2,7]naphthyridine]-6′-yl)methyl)acrylamide]
